Measurements reported in PubChem BioAssay AID248 (DTP/NCI, 2004).
“And” between values parts separate entries of the source, which are not always exact repeats. Equal values may be shown once. Inconclusive results and toxic doses are left out. No stated cut-off is given here; in the data, active means T/C of 150% or more; inactive means T/C below 125%.

System: L1210 leukemia ip in BDF1 mice, survival T/C
Experiment: NCI In Vivo Anticancer Drug Screen. Data for tumor model L1210 Leukemia (intraperitoneal) in B6D2F1 (BDF1) mice
Conditions: endpoint: mean survival time, higher = longer survival
Outline: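 In this screen, tumor-bearing mice given compound are compared to those given vehicle, and their survival values are reported as a treated-to-control quotient.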

[1] = dose: 12.5 mg/kg/injection, schedule: Q01DX009 (ip), vehicle: Klucel (hydroxypropylcellulose) (HPC)
[2] = dose: 25.0 mg/kg/injection, schedule: Q01DX009 (ip), vehicle: Klucel (hydroxypropylcellulose) (HPC)
[3] = dose: 100.0 mg/kg/injection, schedule: Q01DX009 (ip), vehicle: Klucel (hydroxypropylcellulose) (HPC)
[4] = dose: 100.0 mg/kg/injection, schedule: Q04DX003 (ip), vehicle: Klucel (hydroxypropylcellulose) (HPC)
[5] = dose: 200.0 mg/kg/injection, schedule: Q01DX009 (ip), vehicle: Klucel (hydroxypropylcellulose) (HPC)
[6] = dose: 200.0 mg/kg/injection, schedule: Q04DX003 (ip), vehicle: Klucel (hydroxypropylcellulose) (HPC)
[7] = dose: 400.0 mg/kg/injection, schedule: Q04DX003 (ip), vehicle: Klucel (hydroxypropylcellulose) (HPC)
[8] = dose: 400.0 mg/kg/injection, schedule: Q01DX009 (ip), vehicle: Klucel (hydroxypropylcellulose) (HPC)
[9] = dose: 100.0 mg/kg/injection, schedule: Q04DX002 (ip), vehicle: saline with Tween-80
[10] = dose: 200.0 mg/kg/injection, schedule: Q04DX002 (ip), vehicle: saline with Tween-80
[11] = dose: 400.0 mg/kg/injection, schedule: Q04DX002 (ip), vehicle: saline with Tween-80
[12] = dose: 100.0 mg/kg/injection, schedule: Q01DX001 (ip), vehicle: other
[13] = dose: 200.0 mg/kg/injection, schedule: Q01DX001 (ip), vehicle: other
[14] = dose: 400.0 mg/kg/injection, schedule: Q01DX001 (ip), vehicle: other
[15] = dose: 100.0 mg/kg/injection, schedule: Q04DX003 (ip), vehicle: saline with Tween-80
[16] = dose: 200.0 mg/kg/injection, schedule: Q04DX003 (ip), vehicle: saline with Tween-80

Measured: T/C

CCCc1cc2c(cc1CS(=O)(=O)c1ccccc1)OCO2
inactive: [1] 97 % of control | [2] 112 % of control | dose: 50.0 mg/kg/injection, schedule: Q01DX009 (ip), vehicle: Klucel (hydroxypropylcellulose) (HPC) 108 % of control | [3] 101 % of control and 102 % of control | [4] 94 % of control | [5] 102 % of control | [6] 97 % of control | [7] 101 % of control

CC(=O)OC1CCC2(C)C(CCC3C4CCC(C(C)OC(C)=O)C4NC(=O)CC32)C1 (stereo not drawn)
inactive: dose: 75.0 mg/kg/injection, schedule: Q01DX001 (ip), vehicle: other 104 % of control | dose: 150.0 mg/kg/injection, schedule: Q01DX001 (ip), vehicle: other 101 % of control | dose: 300.0 mg/kg/injection, schedule: Q01DX001 (ip), vehicle: other 93 % of control

CCCCCCCCCCCCCCOC(=O)Cl
inactive: [3] 101 % of control | [5] 97 % of control | [8] 86 % of control

CC(=O)c1cc(C)c(O)cc1C
inactive: [9] 103 % of control | [10] 92 % of control | [11] 111 % of control

Cc1ccc(S(=O)(=O)OCCCCl)cc1
inactive: dose: 100.0 mg/kg/injection, schedule: Q01DX001 (ip), vehicle: carboxymethylcellulose (CMC) 112 % of control | dose: 200.0 mg/kg/injection, schedule: Q01DX001 (ip), vehicle: carboxymethylcellulose (CMC) 106 % of control | dose: 400.0 mg/kg/injection, schedule: Q01DX001 (ip), vehicle: carboxymethylcellulose (CMC) 101 % of control

O=C(Nc1ncc([N+](=O)[O-])s1)c1cccc([N+](=O)[O-])c1
inactive: dose: 6.25 mg/kg/injection, schedule: Q01DX009 (ip), vehicle: Klucel (hydroxypropylcellulose) (HPC) 92 % of control | dose: 6.25 mg/kg/injection, schedule: Q04DX003 (ip), vehicle: Klucel (hydroxypropylcellulose) (HPC) 105 % of control | [1] 100 % of control | dose: 12.5 mg/kg/injection, schedule: Q04DX003 (ip), vehicle: Klucel (hydroxypropylcellulose) (HPC) 102 % of control | [2] 89 % of control | dose: 25.0 mg/kg/injection, schedule: Q04DX003 (ip), vehicle: Klucel (hydroxypropylcellulose) (HPC) 102 % of control

CCCN(CCC)S(=O)(=O)CC
inactive: [9] 99 % of control | [10] 92 % of control | [11] 99 % of control

C/C=C(\C)COC(=O)c1ccc([N+](=O)[O-])cc1
inactive: [12] 104 % of control | [13] 98 % of control | [14] 93 % of control

CN(C)c1ccc(/C=N/NC(=O)C(O)C(O)C(O)C(O)CO)cc1 (stereo not drawn)
inactive: [3] 97 % of control | [5] 96 % of control | [8] 102 % of control

N#Cc1ncc(-c2ccccc2)nc1Cl
inactive: dose: 50.0 mg/kg/injection, schedule: Q01DX009 (ip), vehicle: saline with Tween-80 94 % of control | dose: 100.0 mg/kg/injection, schedule: Q01DX009 (ip), vehicle: saline with Tween-80 96 % of control | [15] 97 % of control | dose: 200.0 mg/kg/injection, schedule: Q01DX009 (ip), vehicle: saline with Tween-80 92 % of control | [16] 95 % of control

COC(=O)CNc1ccc(S(=O)(=O)c2ccc(N)cc2)cc1
inactive: [3] 107 % of control | [4] 97 % of control | [5] 92 % of control | [6] 101 % of control | [8] 88 % of control | [7] 97 % of control

CCCC/C=C(\C)CCCCCCCCC (tested in a mixture with another compound)
inactive: [15] 90 % of control | [16] 89 % of control | dose: 400.0 mg/kg/injection, schedule: Q04DX003 (ip), vehicle: saline with Tween-80 98 % of control

O=NN(CCCl)C(=O)Nc1ccc2oc(=O)c3ccccc3c2c1
active: dose: 10.0 mg/kg/injection, schedule: Q01DX001 (ip), vehicle: carboxymethylcellulose (CMC) 150 % of control | dose: 35.0 mg/kg/injection, schedule: Q01DX001 (ip), vehicle: carboxymethylcellulose (CMC) 164 % of control | dose: 600.0 mg/kg/injection, schedule: Q01DX001 (ip), vehicle: carboxymethylcellulose (CMC) 152 % of control
inactive: dose: 1.25 mg/kg/injection, schedule: Q01DX001 (ip), vehicle: Klucel (hydroxypropylcellulose) (HPC) 123 % of control | dose: 2.5 mg/kg/injection, schedule: Q01DX001 (ip), vehicle: Klucel (hydroxypropylcellulose) (HPC) 105 % of control | dose: 5.0 mg/kg/injection, schedule: Q01DX001 (ip), vehicle: Klucel (hydroxypropylcellulose) (HPC) 112 % of control | dose: 150.0 mg/kg/injection, schedule: Q01DX001 (ip), vehicle: carboxymethylcellulose (CMC) 120 % of control | dose: 177.0 mg/kg/injection, schedule: Q01DX009 (ip), vehicle: carboxymethylcellulose (CMC) 101 % of control | dose: 266.0 mg/kg/injection, schedule: Q01DX009 (ip), vehicle: carboxymethylcellulose (CMC) 95 % of control | dose: 400.0 mg/kg/injection, schedule: Q01DX009 (ip), vehicle: carboxymethylcellulose (CMC) 92 % of control | dose: 600.0 mg/kg/injection, schedule: Q01DX009 (ip), vehicle: carboxymethylcellulose (CMC) 87 % of control

Cc1cnc(C)c(C(O)c2ccccc2)n1 (stereo not drawn)
inactive: dose: 50.0 mg/kg/injection, schedule: Q01DX001 (ip), vehicle: saline 98 % of control | dose: 100.0 mg/kg/injection, schedule: Q01DX001 (ip), vehicle: saline 98 % of control | dose: 200.0 mg/kg/injection, schedule: Q01DX001 (ip), vehicle: saline 112 % of control | dose: 400.0 mg/kg/injection, schedule: Q01DX001 (ip), vehicle: saline 106 % of control

N=C(N)SCCC(=O)O
inactive: dose: 100.0 mg/kg/injection, schedule: Q01DX009 (ip), vehicle: saline 100 % of control | dose: 100.0 mg/kg/injection, schedule: Q04DX003 (ip), vehicle: saline 90 % of control | dose: 200.0 mg/kg/injection, schedule: Q01DX009 (ip), vehicle: saline 110 % of control | dose: 200.0 mg/kg/injection, schedule: Q04DX003 (ip), vehicle: saline 96 % of control | dose: 400.0 mg/kg/injection, schedule: Q01DX009 (ip), vehicle: saline 115 % of control | dose: 400.0 mg/kg/injection, schedule: Q04DX003 (ip), vehicle: saline 95 % of control

CC[n+]1cccc(NC(=O)c2ccc(NC(=O)c3ccc(C(=O)Nc4ccc(C(=O)Nc5ccc[n+](CC)c5)cc4)cc3)cc2)c1
active: dose: 4.0 mg/kg/injection, schedule: Q01DX009 (ip), vehicle: saline 157 % of control and 160 % of control | dose: 8.0 mg/kg/injection, schedule: Q01DX009 (ip), vehicle: saline 228 % of control | dose: 32.0 mg/kg/injection, schedule: Q01DX001 (ip), vehicle: saline 189 % of control | dose: 64.0 mg/kg/injection, schedule: Q01DX001 (ip), vehicle: saline 229 % of control
inactive: dose: 0.25 mg/kg/injection, schedule: Q01DX009 (ip), vehicle: saline 110 % of control | dose: 4.0 mg/kg/injection, schedule: Q01DX001 (ip), vehicle: saline 115 % of control and 117 % of control | dose: 4.4 mg/kg/injection, schedule: Q01DX Z (ip), vehicle: carboxymethylcellulose (CMC) 120 % of control | dose: 6.7 mg/kg/injection, schedule: Q01DX Z (ip), vehicle: carboxymethylcellulose (CMC) 92 % of control | dose: 16.0 mg/kg/injection, schedule: Q01DX009 (ip), vehicle: saline 121 % of control and 124 % of control

O=C(Nc1csnn1)c1ccco1
inactive: dose: 50.0 mg/kg/injection, schedule: Q01DX001 (ip), vehicle: other 104 % of control | [12] 115 % of control | [13] 104 % of control | [14] 110 % of control
